Source: patent US20250388605A1, “HETEROBIFUNCTIONAL COMPOUNDS AND METHODS OF TREATING DISEASE” (Halda Therapeutics OpCo, Inc., priority 2022, published 2025)

Legend:
[1] = test system: T-Rex 293 cell line SC3 cells having increased expression of androgen receptor protein due to exposure to doxycycline; assay: Cellular growth inhibition, T-Rex 293 SC3 cells with doxycycline (increased androgen receptor expression), CellTiter-Glo; type: cell-based; conditions: T-Rex 293 SC3 cells with 10 ng/mL doxycycline (increased androgen receptor expression), 72 hours, CellTiter-Glo 2.0
Summary of the method: (§1)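 Doxycycline (10 ng/mL) was either included or omitted to toggle wild-type androgen receptor expression in SC3 cells, a T-Rex 293 clone, grown in stripped-serum, phenol red-free medium. After 72 hours with compound, viable cells were quantified by CellTiter-Glo 2.0.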

T47D cells = assay: Cellular Growth Inhibition Assay for T47D Cells (CellTiter-Glo); type: cell-based, human; conditions: Homo sapiens, 72 hours
Summary of the method: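 GI50 values derive from four-parameter regression of CellTiter-Glo 2.0 luminescence, using zero luminescence as baseline. Human breast cancer T47D cells (3000/well; DMEM, 10% FBS, 0.2 units/mL insulin) were exposed for 72 h to compound dilutions at 0.5% DMSO, with dosing starting 24 h after seeding.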

[2] = test system: T-Rex 293 cell line SC3 cells lacking increased expression of androgen receptor protein; assay: Cellular growth inhibition, T-Rex 293 SC3 cells without doxycycline (no increased androgen receptor expression), CellTiter-Glo; type: cell-based; conditions: T-Rex 293 SC3 cells not exposed to doxycycline (no increased androgen receptor expression), 72 hours
Summary of the method: as §1

Row | Compound | GI50 (T47D cells) [nM] | GI50 [1] [nM] | GI50 [2] [nM]
1 | Cn1cc(-c2cc(N)ccc2Oc2cccc(OCCOC3CCN(c4ncc(C(=O)N[C@H]5C(C)(C)[C@H](Oc6ccc(C#N)c(Cl)c6)C5(C)C)cn4)CC3)c2)c2cc[nH]c2c1=O [Compound I-62, 2-(4-(2-(3-(4-amino-2-(6-methyl-7-oxo-6,7-dihydro-1H-pyrrolo[2,3-c]pyridin-4-yl)phenoxy)phenoxy)ethoxy)piperidin-1-yl)-N-((1r, 3r)-3-(3-chloro-4-cyanophenoxy)-2,2,4,4-tetramethylcyclobutyl)pyrimidine-5-carboxamide] | 500 to 1500 | < 500 | > 3000
2 | CCS(=O)(=O)Nc1ccc(Oc2ccc(F)c(OCCOC3CCN(c4ncc(C(=O)N[C@H]5C(C)(C)[C@H](Oc6ccc(C#N)c(Cl)c6)C5(C)C)cn4)CC3)c2F)c(-c2cn(C)c(=O)c3[nH]ccc23)c1 [Compound I-65] | < 500 | < 500 | < 500
3 | CCS(=O)(=O)Nc1ccc(Oc2cccc(OCCOC3CCN(c4ccc(C(=O)N[C@H]5C(C)(C)[C@H](Oc6ccc(C#N)c(Cl)c6)C5(C)C)cn4)CC3)c2)c(-c2cn(C)c(=O)c3[nH]ccc23)c1 [Compound I-70, N-((1r, 3r)-3-(3-chloro-4-cyanophenoxy)-2,2,4,4-tetramethylcyclobutyl)-6-(4-(2-(3-(4-(ethylsulfonamido)-2-(6-methyl-7-oxo-6,7-dihydro-1H-pyrrolo[2,3-c]pyridin-4-yl)phenoxy)phenoxy)ethoxy)piperidin-1-yl)nicotinamide] | < 500 | < 500 | < 500
4 | CCS(=O)(=O)Nc1ccc(Oc2cccc(OCCOC3CCN(c4cnc(C(=O)N[C@H]5C(C)(C)[C@H](Oc6ccc(C#N)c(Cl)c6)C5(C)C)cn4)CC3)c2)c(-c2cn(C)c(=O)c3[nH]ccc23)c1 [Compound I-71, N-((1r, 3r)-3-(3-chloro-4-cyanophenoxy)-2,2,4,4-tetramethylcyclobutyl)-5-(4-(2-(3-(4-(ethylsulfonamido)-2-(6-methyl-7-oxo-6,7-dihydro-1H-pyrrolo[2,3-c]pyridin-4-yl)phenoxy)phenoxy)ethoxy)piperidin-1-yl)pyrazine-2-carboxamide] | < 500 | < 500 | < 500
5 | CN(c1ccc(Oc2cccc(N3CC(N4CCN(c5ncc(C(=O)N[C@H]6C(C)(C)[C@H](Oc7ccc(C#N)c(Cl)c7)C6(C)C)cn5)CC4)C3)c2)c(-c2cn(C)c(=O)c3[nH]ccc23)c1)S(=O)(=O)C1CC1 [Compound I-88, N-((1r, 3r)-3-(3-chloro-4-cyanophenoxy)-2,2,4,4-tetramethylcyclobutyl)-2-(4-(1-(3-(2-(6-methyl-7-oxo-6,7-dihydro-1H-pyrrolo[2,3-c]pyridin-4-yl)-4-(N-methylcyclopropanesulfonamido)phenoxy)phenyl)azetidin-3-yl)piperazin-1-yl)pyrimidine-5-carboxamide] | 500 to 1500 | < 500 | > 3000

Now from value to compound, other results behind:

Row | GI50 (T47D cells) [nM] | Compound | GI50 [1] [nM] | GI50 [2] [nM]
6 | < 500 | CCS(=O)(=O)Nc1ccc(Oc2cccc(N3CC(N4CCN(c5ncc(C(=O)N[C@H]6C(C)(C)[C@H](Oc7ccc(C#N)c(Cl)c7)C6(C)C)cn5)CC4)C3)c2)c(-c2cn(C)c(=O)c3[nH]ccc23)c1 [Compound I-75] | < 500 | < 500
7 | < 500 | CCS(=O)(=O)Nc1ccc(Oc2cccc(N3CC(OC4CCN(c5ncc(C(=O)N[C@H]6C(C)(C)[C@H](Oc7ccc(C#N)c(Cl)c7)C6(C)C)cn5)CC4)C3)c2)c(-c2cn(C)c(=O)c3[nH]ccc23)c1 [Compound I-80] | < 500 | < 500
8 | < 500 | CCS(=O)(=O)Nc1ccc(Oc2cccc(NCCOC3CCN(c4ncc(C(=O)N[C@H]5C(C)(C)[C@H](Oc6ccc(C#N)c(Cl)c6)C5(C)C)cn4)CC3)c2)c(-c2cn(C)c(=O)c3[nH]ccc23)c1 [Compound I-84] | < 500 | < 500
